Measurements from patent US12384776B2, “Compounds and uses thereof” (Foghorn Therapeutics Inc., priority 2019, dated 2025).

Molecular target: Nanoluciferase-BRD9 fusion protein (3×FLAG-NLuc-BRD9) in SYO-1 cells (Homo sapiens (Human), UniProt Q9H8M2)
Test: SYO1 BRD9 NanoLuc degradation assay
Assay type: cell-based
Details: SYO-1 cells, 6 hours, Table 6C
How it was run: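 Stable SYO-1 line expressing 3×FLAG-NLuc-BRD9, treated with 10-point 3-fold dilutions (top 1 μM final) for 6 hours. Nanoluciferase luminescence read with Nano-Glo reagent. % inhibition relative to DMSO (high control) and 1 μM reference BRD9 degrader (low control).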

Chain of Nanoluciferase-BRD9 fusion protein (3×FLAG-NLuc-BRD9) in SYO-1 cells (Q9H8M2 whole entry, the tested form may be a part): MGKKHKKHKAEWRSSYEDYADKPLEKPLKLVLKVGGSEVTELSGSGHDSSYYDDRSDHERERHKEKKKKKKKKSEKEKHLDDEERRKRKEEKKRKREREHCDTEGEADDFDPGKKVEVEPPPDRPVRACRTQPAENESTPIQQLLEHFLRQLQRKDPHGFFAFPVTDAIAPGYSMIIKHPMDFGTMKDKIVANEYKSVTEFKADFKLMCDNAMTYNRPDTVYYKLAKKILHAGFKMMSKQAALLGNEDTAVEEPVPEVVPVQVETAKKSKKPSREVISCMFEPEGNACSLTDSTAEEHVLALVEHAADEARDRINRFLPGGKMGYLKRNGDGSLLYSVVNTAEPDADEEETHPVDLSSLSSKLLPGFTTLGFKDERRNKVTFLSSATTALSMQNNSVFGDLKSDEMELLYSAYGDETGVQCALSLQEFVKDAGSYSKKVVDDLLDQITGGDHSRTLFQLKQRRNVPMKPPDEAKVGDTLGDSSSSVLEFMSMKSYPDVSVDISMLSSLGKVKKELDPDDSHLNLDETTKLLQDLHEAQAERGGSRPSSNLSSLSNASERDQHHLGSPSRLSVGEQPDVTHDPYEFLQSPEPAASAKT

Row | IC50 [nM] | SMILES
1 | ≥ 1000 | CNC(=O)N1CCc2c(-c3cc(OC)c(CN4CCN(CCC5CCN(c6ccc7c(c6)C(=O)N(C6CCC(=O)N(C)C6=O)C7)CC5)CC4)c(OC)c3)cn(C)c(=O)c2C1 (stereo not drawn) [Compound D305]
2 | < 10 | CNC(=O)N1CCc2c(-c3cc(OC)c(CN4CCC5(CN(c6ccc7c(c6)C(=O)N(C6CCC(=O)NC6=O)C7)C5)C(F)(F)C4)c(OC)c3)cn(C)c(=O)c2C1 (stereo not drawn) [Compound D306]
3 | < 10 | COc1cc(-c2cn(C)c(=O)c3c2CCN(C(=O)NCC(F)F)C3)cc(OC)c1CN(C)c1ccc2c(c1)C(=O)N(C1CCC(=O)NC1=O)C2 (stereo not drawn) [Compound D307]
4 | < 10 | CNC(=O)N1CCc2c(-c3cc(OC)c(CN4CCC5(CC4)CN(c4ccc6c(c4)C(=O)N(C4CCC(=O)NC4=O)C6)C5)c(OC)c3)cn(C)c(=O)c2C1 (stereo not drawn) [Compound D308]
5 | < 10 | CNC(=O)N1CCc2c(-c3cc(OC)c(CN4CCN(CCC5CCN(c6ccc7c(c6)C(=O)N(C6CCC(=O)NC6=O)C7)CC5)CC4(C)C)c(OC)c3)cn(C)c(=O)c2C1 (stereo not drawn) [Compound D309]
6 | < 10 | CNC(=O)N1CCc2c(-c3cc(OC)c(CN4CCN(CCC5CCN(c6ccc7c(c6)CN(C6CCC(=O)NC6=O)C7=O)CC5)CC45CC5)c(OC)c3)cn(C)c(=O)c2C1 (stereo not drawn) [Compound D310]
7 | < 10 | COc1cc(-c2cn(C)c(=O)c3c2CCN(C(=O)NCC(F)F)C3)cc(OC)c1CN1CCN(CCC2CCN(c3ccc4c(c3)CN(C3CCC(=O)NC3=O)C4=O)CC2)CC12CC2 (stereo not drawn) [Compound D311]
8 | < 10 | COc1cc(-c2cn(C)c(=O)c3c2CCN(C(=O)NCC(F)F)C3)cc(OC)c1CN1CCN(CCC2CCN(c3ccc4c(c3)C(=O)N(C3CCC(=O)NC3=O)C4)CC2)CC12CC2 (stereo not drawn) [Compound D312]
9 | ≥ 1000 | COc1cc(-c2cn(C)c(=O)c3c2CCN(C(=O)NCC(F)F)C3)cc(OC)c1CN1CCN(CCC2CCN(c3ccc4c(c3)C(=O)N(C3CCC(=O)NC3=O)C4)CC2)CC1(C)C (stereo not drawn) [Compound D313]
10 | < 10 | CNC(=O)N1CCc2c(-c3cc(OC)c(CN4CCN(CCC5CCN(c6ccc7c(c6)C(=O)N(C6CCC(=O)NC6=O)C7)CC5)CC45CC5)c(OC)c3)cn(C)c(=O)c2C1 (stereo not drawn) [Compound D314]
11 | < 10 | CNC(=O)N1CCc2c(-c3cc(OC)c(CN4CCC(CN5CCC6(CN(c7ccc8c(c7)C(=O)N(C7CCC(=O)NC7=O)C8)C6)C(F)(F)C5)CC4)c(OC)c3)cn(C)c(=O)c2C1 (stereo not drawn) [Compound D315]
12 | ≥ 1000 | [2H]C([2H])([2H])n1cc(-c2cc(OC)c(CN3CCN(CCC4CCN(c5ccc6c(c5)C(=O)N(C5CCC(=O)NC5=O)C6)CC4)CC3)c(OC)c2)c2c(c1=O)CN(C(=O)NCC(F)F)CC2 (stereo not drawn) [Compound D316]
13 | < 10 | [2H]C([2H])([2H])n1cc(-c2cc(OC)c(CN3CCN(CCC4CCN(c5ccc6c(c5)CN(C5CCC(=O)NC5=O)C6=O)CC4)CC3)c(OC)c2)c2c(c1=O)CN(C(=O)NCC(F)F)CC2 (stereo not drawn) [Compound D317]
14 | < 10 | [2H]C([2H])([2H])n1cc(-c2cc(OC)c(CN3[C@H](C)CN(CCC4CCN(c5ccc6c(c5)CN(C5CCC(=O)NC5=O)C6=O)CC4)C[C@H]3C)c(OC)c2)c2c(c1=O)CN(C(=O)NC)CC2 (stereo partly drawn) [Compound D318]
15 | < 10 | [2H]C([2H])([2H])n1cc(-c2cc(OC)c(CN3[C@H](C)CN(CCC4CCN(c5ccc6c(c5)C(=O)N(C5CCC(=O)NC5=O)C6)CC4)C[C@H]3C)c(OC)c2)c2c(c1=O)CN(C(=O)NC)CC2 (stereo partly drawn) [Compound D319]
16 | < 10 | COc1cc(-c2cn(C)c(=O)c3c2CCN(C(=O)NCC(F)F)C3)cc(OC)c1CN1CCN(CCC2CCN(c3ccc4c(c3)CN(C3CCC(=O)NC3=O)C4=O)CC2)CC1(C)C (stereo not drawn) [Compound D320]
17 | < 10 | CNC(=O)N1CCc2c(-c3cc(OC)c(CN4CCN(CCC5CCN(c6ccc7c(c6)CN(C6CCC(=O)NC6=O)C7=O)CC5)CC45CCC5)c(OC)c3)cn(C)c(=O)c2C1 (stereo not drawn) [Compound D321]
18 | < 10 | COc1cc(-c2cn(C)c(=O)c3c2CCN(C(=O)NCC(F)F)C3)cc(OC)c1CN1CCN(CCC2CCN(c3ccc4c(c3)CN(C3CCC(=O)NC3=O)C4=O)CC2)CC12CCC2 (stereo not drawn) [Compound D322]
19 | < 10 | [2H]C([2H])([2H])NC(=O)N1CCc2c(-c3cc(OC)c(CN4[C@H](C)CN(CCC5CCN(c6ccc7c(c6)C(=O)N(C6CCC(=O)NC6=O)C7)CC5)C[C@H]4C)c(OC)c3)cn(C)c(=O)c2C1 (stereo partly drawn) [Compound D323]
20 | < 10 | [2H]C([2H])([2H])NC(=O)N1CCc2c(-c3cc(OC)c(CN4[C@H](C)CN(CCC5CCN(c6ccc7c(c6)CN(C6CCC(=O)NC6=O)C7=O)CC5)C[C@H]4C)c(OC)c3)cn(C)c(=O)c2C1 (stereo partly drawn) [Compound D324]
21 | < 10 | CNC(=O)N1CCc2c(-c3cc(OC)c(CN4[C@H](C)CN(CCC5CCN(c6ccc7c(c6)CN(C6CCC(=O)NC6=O)C7=O)CC5)C[C@H]4C)c(OC)c3)cn(C)c(=O)c2C1 (stereo partly drawn) [Compound D325]
22 | < 10 | CNC(=O)N1CCc2c(-c3cc(OC)c(CN4[C@H](C)CN(CCC5CCN(c6ccc7c(c6)C(=O)N(C6CCC(=O)NC6=O)C7)CC5)C[C@H]4C)c(OC)c3)cn(C)c(=O)c2C1 (stereo partly drawn) [Compound D326]
23 | < 10 | CCc1cc(-c2cn(C)c(=O)c3c2CCN(C(=O)NC)C3)cc(OC)c1CN1CCN(CCC2CCN(c3ccc4c(c3)C(=O)N(C3CCC(=O)NC3=O)C4)CC2)CC1 (stereo not drawn) [Compound D327]

Row | IC50 [nM] | SMILES
24 | ≥ 1000 | [2H]C([2H])([2H])n1cc(-c2cc(OC)c(CN3CCN(CCC4CCN(c5ccc6c(c5)C(=O)N(C5CCC(=O)NC5=O)C6=O)CC4)CC3)c(OC)c2)c2c(c1=O)CN(C(=O)NCC(F)F)CC2 (stereo not drawn) [Compound D328]
25 | < 10 | CNC(=O)N1CCc2c(-c3cc(OC)c(CN4CCN(CCC5CCN(c6ccc7c(c6)CN(C6CCC(=O)NC6=O)C7=O)CC5)CC4COC)c(OC)c3)cn(C)c(=O)c2C1 (stereo not drawn) [Compound D329]
26 | < 10 | CNC(=O)N1CCc2c(-c3cc(OC)c(CN4CCN(CCC5CCN(c6ccc7c(c6)CN(C6CCC(=O)NC6=O)C7=O)CC5(F)F)CC4)c(OC)c3)cn(C)c(=O)c2C1 (stereo not drawn) [Compound D330]
27 | ≥ 10 | CNC(=O)N1CCc2c(-c3cc(OC)c(C4CN(c5ccc6c(c5)CN(C5CCC(=O)NC5=O)C6=O)C4)c(OC)c3)cn(C)c(=O)c2C1 (stereo not drawn) [Compound D331]
28 | < 10 | CNC(=O)N1CCc2c(-c3cc(OC)c(CN4CCN(CCC5CCN(c6ccc7c(c6)C(=O)N(C6CCC(=O)NC6=O)C7)CC5)CC45CCC5)c(OC)c3)cn(C)c(=O)c2C1 (stereo not drawn) [Compound D332]
29 | < 10 | COc1cc(-c2cn(C)c(=O)c3c2CCN(C(=O)NCC(F)F)C3)cc(OC)c1CN1CCN(CCC2CCN(c3ccc4c(c3)C(=O)N(C3CCC(=O)NC3=O)C4)CC2)CC12CCC2 (stereo not drawn) [Compound D333]
30 | < 10 | CNC(=O)N1CCc2c(-c3cc(OC)c(CN4CC(C(N5CCC6(CC5)CN(c5ccc7c(c5)C(=O)N(C5CCC(=O)NC5=O)C7)C6)C(F)(F)F)C4)c(OC)c3)cn(C)c(=O)c2C1 (stereo not drawn) [Compound D334]
31 | < 10 | COc1cc(-c2cn(C)c(=O)c3c2CCN(C(=O)NCC(F)F)C3)cc(OC)c1CN1CCC(CN2CCC3(CC2)CN(c2ccc4c(c2)C(=O)N(C2CCC(=O)NC2=O)C4)C3)CC1 (stereo not drawn) [Compound D336]
32 | ≥ 1000 | CNC(=O)N1CCc2c(-c3cc(OC)c(CN4CCN(CCC5CCN(c6ccc7c(c6)C(=O)N(C6CCC(=O)NC6=O)C7=O)CC5)CC4)c(OC)c3)c(C)n(C)c(=O)c2C1 (stereo not drawn) [Compound D337]
33 | < 10 | CNC(=O)N1CCc2c(-c3cc(OC)c(CN4CCC(CN5CCC6(CC5)CC(Oc5ccc7c(c5)C(=O)N(C5CCC(=O)NC5=O)C7=O)C6)CC4)c(OC)c3)cn(C(F)F)c(=O)c2C1 (stereo not drawn) [Compound D338]
34 | < 10 | CNC(=O)N1CCc2c(-c3cc(OC)c(CN4CCC(CN5CCC6(CN(c7ccc8c(c7)CN(C7CCC(=O)NC7=O)C8=O)C6)C(F)(F)C5)CC4)c(OC)c3)cn(C)c(=O)c2C1 (stereo not drawn) [Compound D339]
35 | < 10 | CNC(=O)N1CCc2c(-c3cc(OC)c(CN4CCN(CCC5CCN(c6ccc7c(c6)C(=O)N(C6CCC(=O)NC6=O)C7)CC5)CC4COC)c(OC)c3)cn(C)c(=O)c2C1 (stereo not drawn) [Compound D340]
36 | < 10 | [2H]C([2H])([2H])NC(=O)N1CCc2c(-c3cc(OC)c(CN4CCN(CCC5CCN(c6ccc7c(c6)C(=O)N(C6CCC(=O)NC6=O)C7)CC5)CC4)c(OC)c3)cn(C)c(=O)c2C1 (stereo not drawn) [Compound D341]
37 | < 10 | CNC(=O)N1CCc2c(-c3cc(OC)c(CN4CCC(CCN5C(C)CC(c6ccc7c(c6)C(=O)N(C6CCC(=O)NC6=O)C7=O)CC5C)CC4)c(OC)c3)cn(C)c(=O)c2C1 (stereo not drawn) [Compound D342]
38 | ≥ 1000 | CNC(=O)N1CCc2c(-c3cc(OC)c(CN4CCC(C(N5CCC6(CC5)CC(Oc5ccc7c(c5)C(=O)N(C5CCC(=O)NC5=O)C7=O)C6)C(F)(F)F)CC4)c(OC)c3)cn(C)c(=O)c2C1 (stereo not drawn) [Compound D343]
39 | < 10 | COc1cc(-c2cn(C)c(=O)c3c2CCN(C(=O)NCC(F)F)C3)cc(OC)c1CN1CCN(CCC2CCN(c3ccc4c(c3)C(=O)N(C3CCC(=O)NC3=O)C4)CC2)CC1 (stereo not drawn) [Compound D344]
40 | < 10 | CNC(=O)N1CCc2c(-c3cc(OC)c(CN4CCC(C(N5CCC6(CC5)CC(Oc5ccc7c(c5)C(=O)N(C5CCC(=O)NC5=O)C7)C6)C(F)(F)F)CC4)c(OC)c3)cn(C)c(=O)c2C1 (stereo not drawn) [Compound D345]
41 | < 10 | CNC(=O)N1CCc2c(-c3cc(OC)c(CN4CCN(CCC5CCN(c6ccc7c(c6)C(=O)N(C6CCC(=O)NC6=O)C7)CC5(F)F)CC4)c(OC)c3)cn(C)c(=O)c2C1 (stereo not drawn) [Compound D346]
42 | < 10 | CNC(=O)N1CCc2c(-c3cc(OC)c(CN4CCC(CN5CCC6(CC5)CC(Oc5ccc7c(c5)C(=O)N(C5CCC(=O)NC5=O)C7=O)C6)CC4)c(OC)c3)cn(CF)c(=O)c2C1 (stereo not drawn) [Compound D347]
43 | < 10 | COc1cc(-c2cn(C)c(=O)c3c2CCC3)cc(OC)c1CN1CCN(CCC2CCN(c3ccc4c(c3)C(=O)N(C3CCC(=O)NC3=O)C4)CC2)CC1 (stereo not drawn) [Compound D348]
44 | ≥ 10 | COc1cc(-c2cn(C)c(=O)c3c2CN(C(=O)F)CC3)cc(OC)c1CN1CC(CN2CCC3(CC2)CN(c2ccc4c(c2)C(=O)N(C2CCC(=O)NC2=O)C4)C3)C1 (stereo not drawn) [Compound D349]
45 | < 10 | COc1cc(-c2cn(C)c(=O)c3c2NCC3)cc(OC)c1CN1CC(CN2CCC3(CC2)CN(c2ccc4c(c2)C(=O)N(C2CCC(=O)NC2=O)C4)C3)C1 (stereo not drawn) [Compound D350]
